Experimental data from paper PMC3963471 (Bioorganic & medicinal chemistry letters, 2013).

Columns and labels:
S1P4-R = biological target: T1, S1P4-R (Homo sapiens, UniProt O95977); assay: S1P4-R selectivity counter screen; format: cell-based; settings: at concentrations up to 50 µM
T1 sequence (O95977 1-384): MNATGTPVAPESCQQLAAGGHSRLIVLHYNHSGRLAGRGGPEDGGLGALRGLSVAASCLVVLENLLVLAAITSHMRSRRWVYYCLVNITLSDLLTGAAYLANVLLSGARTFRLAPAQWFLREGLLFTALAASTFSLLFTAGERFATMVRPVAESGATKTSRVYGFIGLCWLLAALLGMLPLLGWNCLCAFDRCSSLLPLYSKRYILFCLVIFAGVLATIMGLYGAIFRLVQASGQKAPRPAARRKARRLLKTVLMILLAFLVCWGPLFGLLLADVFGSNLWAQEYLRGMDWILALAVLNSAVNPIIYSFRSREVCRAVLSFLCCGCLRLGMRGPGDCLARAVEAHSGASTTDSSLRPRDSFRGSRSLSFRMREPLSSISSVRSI

S1P2-R = S1P2-R (Homo sapiens, UniProt O95136); assay: S1P2-R selectivity counter screen; format: cell-based; settings: at concentrations up to 50 µM
S1P3-R [1] = biological target: T2, S1P3-R (Homo sapiens, UniProt Q99500); assay: S1P3-R agonist assay, CHO NFAT-BLA reporter; format: cell-based; settings: for loss in potency for the S1P3-R relative to hit 1a: less potent than 1a; for selectivity against S1P1,2,4,5-R subtypes (in words): S1P3-R agonist versus remaining subtypes; for loss of potency at S1P3-R relative to 5f: less potent than 5f
S1P1-R = S1P1-R (Homo sapiens, UniProt P21453); assay: S1P1-R agonist assay; format: cell-based
[2] = tested on: Ricerca panel of off target proteins including GPCRs, enzymes and ion channels; assay: Ricerca panel of off target proteins; settings: at 30 µM; targets other than those singled out
sodium channel site two = assay: Ricerca panel: sodium channel site two; format: binding; settings: 30 µM; borderline inhibition
S1P3-R [3] = biological target: T2, S1P3-R; assay: [33P]S1P competitive binding experiment in S1P3 jump-in CHO cells; settings: 0.1 nM [33P]S1P; competitor 0.001 nM to 10 µM; 4 °C, 30 min

S1P1-R, sequence (P21453 whole entry): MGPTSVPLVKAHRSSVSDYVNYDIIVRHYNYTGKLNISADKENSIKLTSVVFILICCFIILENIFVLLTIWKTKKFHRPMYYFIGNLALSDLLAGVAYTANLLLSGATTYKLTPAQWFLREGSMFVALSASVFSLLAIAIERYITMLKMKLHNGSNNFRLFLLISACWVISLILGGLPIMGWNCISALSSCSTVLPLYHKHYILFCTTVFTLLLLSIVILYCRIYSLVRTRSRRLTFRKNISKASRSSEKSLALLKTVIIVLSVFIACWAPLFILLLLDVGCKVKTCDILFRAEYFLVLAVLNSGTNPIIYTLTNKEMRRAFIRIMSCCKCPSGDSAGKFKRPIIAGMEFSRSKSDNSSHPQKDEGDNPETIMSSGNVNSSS
T2 sequence (Q99500 whole entry): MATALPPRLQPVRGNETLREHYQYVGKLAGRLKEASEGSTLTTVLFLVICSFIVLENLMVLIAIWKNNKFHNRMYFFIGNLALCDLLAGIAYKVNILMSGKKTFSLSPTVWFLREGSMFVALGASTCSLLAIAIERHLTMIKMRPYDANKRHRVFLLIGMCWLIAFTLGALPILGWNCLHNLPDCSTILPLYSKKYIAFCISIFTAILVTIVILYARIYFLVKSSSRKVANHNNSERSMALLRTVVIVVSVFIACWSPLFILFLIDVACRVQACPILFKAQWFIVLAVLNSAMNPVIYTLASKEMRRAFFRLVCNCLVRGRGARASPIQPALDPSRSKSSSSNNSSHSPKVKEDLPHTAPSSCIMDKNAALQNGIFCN
S1P2-R, sequence (O95136 whole entry): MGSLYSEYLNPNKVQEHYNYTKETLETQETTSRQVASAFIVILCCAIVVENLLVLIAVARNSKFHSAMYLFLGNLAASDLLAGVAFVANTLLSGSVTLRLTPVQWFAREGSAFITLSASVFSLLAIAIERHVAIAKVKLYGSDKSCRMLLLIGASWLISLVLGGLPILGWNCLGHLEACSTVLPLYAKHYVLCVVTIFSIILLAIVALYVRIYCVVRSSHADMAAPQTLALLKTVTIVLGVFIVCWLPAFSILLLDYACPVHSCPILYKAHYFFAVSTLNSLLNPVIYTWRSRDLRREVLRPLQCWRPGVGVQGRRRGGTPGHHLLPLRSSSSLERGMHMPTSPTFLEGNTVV

SMILES: CCCc1cc(C(=O)N(C2CCCCC2)C2CCCCC2)no1 [Compd 1a, N,N-dicyclohexyl-5-propylisoxazole-3-carboxamide]
- agonist activity at S1P4-R (S1P4-R): no agonist activity
- agonist activity at S1P2-R (S1P2-R): no agonist activity

SMILES: CCCc1cc(C(=O)N(C2CCCCC2)C2CCCC2)no1 [Compd 1b]
- loss in potency for the S1P3-R relative to hit 1a (S1P3-R [1]): 18 fold
- loss in potency for the S1P1-R relative to hit 1a (S1P1-R; less potent than 1a): three-fold

SMILES: CCCc1cc(C(=O)NC2CCCCC2)no1 [Compd 1c]
- activity at S1P3-R (in words) (S1P3-R [1]): complete loss of potency
- activity at S1P1-R (in words) (S1P1-R): complete loss of potency

SMILES: CCCc1cc(C(=O)N(c2ccccc2)C2CCCCC2)no1 [Compd 1d]
- activity at S1P3-R (in words) (S1P3-R [1]): complete loss of potency
- activity at S1P1-R (in words) (S1P1-R): complete loss of potency

SMILES: CC(C)Cc1cc(C(=O)N(C2CCCCC2)C2CCCCC2)no1 [Compd 5a]
- loss in potency for the S1P3-R relative to hit 1a (S1P3-R [1]): three-fold
- less selective against the S1P1-R than the hit (S1P1-R; S1P3-R over S1P1-R, relative to 1a): four-fold

SMILES: CC(C)c1cc(C(=O)N(C2CCCCC2)C2CCCCC2)no1 [Compd 5b]
- loss in potency for the S1P3-R relative to hit 1a (S1P3-R [1]): two-fold

SMILES: Cc1cc(C(=O)N(C2CCCCC2)C2CCCCC2)no1 [Compd 5c]
- loss in potency for the S1P3-R relative to hit 1a (S1P3-R [1]): 15 fold

SMILES: O=C(c1cc(C2CCCCC2)on1)N(C1CCCCC1)C1CCCCC1 [Compd 5d]
- activity at S1P1-R (in words) (S1P1-R): inactive

SMILES: O=C(c1cc(C2CCCC2)on1)N(C1CCCCC1)C1CCCCC1 [Compd 5e]
- activity at S1P1-R (in words) (S1P1-R): inactive

SMILES: O=C(c1cc(C2CC2)on1)N(C1CCCCC1)C1CCCCC1 [Compd 5f, N,N-dicyclohexyl-5-cyclopropylisoxazole-3-carboxamide]
- stimulation/inhibition of panel targets [2]: < 50%
- selectivity against S1P1,2,4,5-R subtypes (in words) (S1P3-R [1]): exquisitely selective
- more potent than the hit at S1P3-R (S1P3-R [1]; relative to 1a): four-fold
- inhibition of sodium channel site two (sodium channel site two): ≥ 50%
- competition with [33P]S1P for the S1P3-R binding pocket (S1P3-R [3]): does not compete

SMILES: COc1ccc(-c2cc(C(=O)N(C3CCCCC3)C3CCCCC3)no2)cc1 [Compd 5h]
- selectivity against the S1P1-R (S1P1-R; S1P3-R over S1P1-R): less than three-fold

SMILES: CCOc1ccc(-c2cc(C(=O)N(C3CCCCC3)C3CCCCC3)no2)cc1OCC [Compd 5i]
- loss in potency for the S1P3-R relative to hit 1a (S1P3-R [1]): 18 fold

SMILES: O=C(NC1CCCCC1)c1cc(C2CC2)on1 [Compd 7a]
- activity at S1P3-R (in words) (S1P3-R [1]): complete loss of activity

SMILES: O=C(c1cc(C2CC2)on1)N(C1CCCCC1)C1CCCC1 [Compd 7b]
- loss of potency at S1P3-R relative to 5f (S1P3-R [1]): 16 fold

SMILES: O=C(c1cc(C2CC2)on1)N(C1CCCCC1)C1CCOCC1 [Compd 7c]
- loss of potency at S1P3-R relative to 5f (S1P3-R [1]): 33 fold

SMILES: O=C(c1cc(C2CC2)on1)N(CC1CCCCC1)C1CCCCC1 [Compd 7d]
- loss of potency at S1P3-R relative to 5f (S1P3-R [1]): 32 fold

SMILES: CC1CCCCC1N(C(=O)c1cc(C2CC2)on1)C1CCCCC1 (centres unmarked) [Compd 7e]
- selectivity against S1P1,2,4,5-R subtypes (in words) (S1P3-R [1]): exquisitely selective
- loss of potency at S1P3-R relative to 5f (S1P3-R [1]): three-fold

SMILES: CC1CCCCC1N(C(=O)c1cc(C2CC2)on1)C1CCCCC1C (centres unmarked) [Compd 7f]
- selectivity against S1P1,2,4,5-R subtypes (in words) (S1P3-R [1]): exquisitely selective
- loss of potency at S1P3-R relative to 5f (S1P3-R [1]): two-fold

SMILES: CC1CCCCC1N(C(=O)c1cc(C2CC2)on1)C1CCCCCC1 (centres unmarked) [Compd 7g]
- less potent than 7e at S1P3-R (S1P3-R [1]; relative to 7e): almost two-fold

SMILES: O=C(c1cc(C2CC2)on1)N(C1CCCCCC1)C1CCCC1 [Compd 7j]
- loss of potency at S1P3-R relative to 5f (S1P3-R [1]): 26 fold

SMILES: O=C(c1cc(C2CC2)on1)N(Cc1ccccc1)c1ccccc1 [Compd 7k]
- activity at S1P3-R (in words) (S1P3-R [1]): drastic loss in potency

SMILES: O=C(c1cc(C2CC2)on1)N(Cc1ccccc1)c1ccccn1 [Compd 7l]
- activity at S1P3-R (in words) (S1P3-R [1]): drastic loss in potency

SMILES: O=C(c1coc(C2CC2)n1)N(C1CCCCC1)C1CCCCC1 [Compd 9a]
- activity at S1P3-R (in words) (S1P3-R [1]): inactive

SMILES: O=C(c1ccc(C2CC2)o1)N(C1CCCCC1)C1CCCCC1 [Compd 9b]
- activity at S1P3-R (in words) (S1P3-R [1]): inactive
- activity at S1P1-R (in words) (S1P1-R): micromolar activity

SMILES: O=C(c1noc2ccccc12)N(C1CCCCC1)C1CCCCC1 [Compd 9c]
- activity at S1P3-R (in words) (S1P3-R [1]): inactive

SMILES: CCCCCCCCCCCCC/C=C/[C@@H](O)[C@@H](N)COP(=O)(O)O [S1P, Sphingosine-1-phosphate, reference compound]
- competition with [33P]S1P for the S1P3-R binding pocket (S1P3-R [3]): competes
